This note sets out measurements from patent US20240182420A1, “MICROBIOCIDAL ISONICOTINIC AMIDE DERIVATIVES” (SYNGENTA CROP PROTECTION AG, priority 2021, published 2024).

One assay relates to Alternaria solani. The experiment in a line: Alternaria solani (early blight of tomato), tomato leaf disks, preventive. The format is in vivo. The settings on record: foliar, 96 h, assessed 4 dpi, vs untreated control. The protocol:
Tomato leaf disks are placed on water agar in multiwell plates (24-well format) and sprayed with test solutions. After drying, the leaf disks are inoculated with a spore suspension of the fungus. After appropriate incubation the activity of a compound is assessed 4 dpi (days post inoculation) as preventive fungicidal activity.

For assay [1], the system named is Botryotinia fuckeliana syn. Botrytis cinerea. The experiment in a line: Botryotinia fuckeliana syn. Botrytis cinerea (gray mould), liquid culture growth inhibition. In kind it is cell-based. The settings on record: PDB nutrient broth, 24° C., 72 hrs, photometric, vs untreated control. The protocol:
Conidia of the fungus from cryogenic storage were directly mixed into nutrient broth (PDB potato dextrose broth). A DMSO solution of the test compounds was placed into a microtiter plate (96-well format) and the nutrient broth containing the fungal spores was added to it. The test plates were incubated at 24° C. and the inhibition of growth was determined photometrically after 72 hrs.

For assay [2] the test system is unchanged. The assay is described as follows: Botryotinia fuckeliana syn. Botrytis cinerea (grey mold on tomato), tomato plants. The format is in vivo. To be noted: tomato plants cv. Roter Gnom, inoculated two days after application, leaf area covered by disease 5-6 days after application. The protocol:
4-week old tomato plants cv. Roter Gnom are treated sprayed in a spray chamber with the formulated test compound diluted in water. The test plants are inoculated by spraying them with a spore suspension two days after application. The inoculated test plants are incubated at 20° C. and 95% rh in a greenhouse and the percentage leaf area covered by disease is assessed when an appropriate level of disease appears on untreated check plants (5-6 days after application).

Assay [3] deals with Glomerella lagenarium syn Colletotrichum lagenarium. The assay is described as follows: Glomerella lagenarium syn. Colletotrichum lagenarium (anthracnose), liquid culture growth inhibition. In kind it is cell-based. The settings on record: Colletotrichum orbiculare, PDB nutrient broth, 24° C., 72 hrs, 620 nm, vs untreated control. The protocol: (§1) Conidia of the fungus from cryogenic storage were directly mixed into nutrient broth (PDB potato dextrose broth). A DMSO solution of the test compounds was placed into a microtiter plate (96-well format) and the nutrient broth containing the fungal spores was added to it. The test plates were incubated at 24° C. and the inhibition of growth was determined photometrically after 72 hrs at 620 nm.

The test system of assay [4] is Phaeosphaeria nodorum syn. Septoria nodorum. The experiment in a line: Phaeosphaeria nodorum syn. Septoria nodorum (glume blotch of wheat), wheat leaf segments, preventive. The format is in vivo. To be noted: Parastagonospora nodorum, foliar, 96 h, assessed 4 dpi, vs untreated control. The protocol: Wheat leaf segments are placed on agar in multiwell plates (24-well format) and sprayed with test solutions. After drying, the leaf disks are inoculated with a spore suspension of the fungus. After appropriate incubation the activity of a compound is assessed 4 dpi (days after inoculation) as preventive fungicidal activity.
The following compounds from Table T1 gave at least 80% control of Phaeosphaeria nodorum at 200 ppm when compared to untreated control under the same conditions, which sowed extensive disease development: • 1.1, 1.3, 1.7, 1.14, 1.39, 1.41, 1.86, 1.87, 1.92, 1.94, 1.95.

Assay [5] concerns Monographella nivalis syn. Microdochium nivale, Fusarium nivale. The experiment in a line: Monographella nivalis syn. Microdochium nivale (snow mould, foot rot), liquid culture growth inhibition. The format is cell-based. The settings on record: PDB nutrient broth, 24° C., 72 hrs, 620 nm, vs untreated control. The protocol:
as §1

The subject of another assay is Pyrenophora teres. The experiment in a line: Pyrenophora teres (net blotch of barley), barley leaf segments, preventive. The format is in vivo. To be noted: foliar, 96 h, assessed 4 dpi, vs untreated control. The protocol: Barley leaf segments are placed on agar in multiwell plates (24-well format) and sprayed with test solutions. After drying, the leaf disks are inoculated with a spore suspension of the fungus. After appropriate incubation, the activity of a compound is assessed 4 dpi (days after inoculation) as preventive fungicidal activity.

The subject of another assay is Sclerotinia sclerotiorum. The experiment in a line: Sclerotinia sclerotiorum (cottony rot, white mold), liquid culture growth inhibition. In kind it is cell-based. The settings on record: PDB nutrient broth, 24° C., 72 hrs, 620 nm, vs untreated control. The protocol:
Mycelial fragments of the fungus prepared from a fresh liquid culture were directly mixed into nutrient broth (PDB potato dextrose broth). A DMSO solution of the test compounds was placed into a microtiter plate (96-well format) and the nutrient broth containing the fungal spores was added to it. The test plates were incubated at 24° C. and the inhibition of growth was determined photometrically after 72 hrs at 620 nm.

Each structure is given as a SMILES string.

`Cc1cccc(Oc2cnc(C)cc2C(=O)NCC(F)c2ccc(Cl)cc2Cl)c1` (stereo not drawn) [Compound 1.1, N-[2-(2,4-dichlorophenyl)-2-fluoro-ethyl]-2-methyl-5-(3-methylphenoxy)pyridine-4-carboxamide]: the pest or weed control at 200 ppm is ≥ 80% in the assay with Alternaria solani, ≥ 50% in assay [2], ≥ 80% in assay [4] and ≥ 80% in the assay on Pyrenophora teres. Moreover, the inhibition of growth at 20 ppm (in assay [1]; in assay [3]; in assay [5]; in the assay on Sclerotinia sclerotiorum) was ≥ 80% each time.
Turning to `Cc1cccc(Oc2cnc(Cl)cc2C(=O)NCC(F)c2ccc(Cl)cc2Cl)c1` (stereo not drawn) [Compound 1.3, 2-chloro-N-[2-(2,4-dichlorophenyl)-2-fluoro-ethyl]-5-(3-methylphenoxy) pyridine-4-carboxamide], the inhibition of growth at 20 ppm (in assay [1]; in assay [3]; in the assay on Sclerotinia sclerotiorum) was ≥ 80% throughout. The pest or weed control at 200 ppm in assay [2] was ≥ 50%; in assay [4] it was ≥ 80%; in the assay with Pyrenophora teres, ≥ 80%.
With `Cc1cncc(Oc2cccc(C3CC3)c2)c1C(=O)NCC(F)c1ccc(Cl)cc1Cl` (stereo not drawn) [Compound 1.7, 3-(3-cyclopropyl-phenoxy)-N-[2-(2,4-dichlorophenyl)-2-fluoro-ethyl]-5-methyl-pyridine-4-carboxamide], the pest or weed control at 200 ppm with Alternaria solani was ≥ 80%; in assay [2], ≥ 50%; in assay [4], ≥ 80%. Moreover, the inhibition of growth at 20 ppm (in assay [1]; in assay [3]; with Sclerotinia sclerotiorum) was ≥ 80% each time.
As to `Cc1cc(C(=O)NCCc2ccc(Cl)cc2Cl)c(Oc2cccc(C3CC3)c2)cn1` [Compound 1.13, 5-(3-cyclopropyl-phenoxy)-N-[2-(2,4-dichlorophenyl)ethyl]-2-methyl-pyridine-4-carboxamide], the inhibition of growth at 20 ppm (in assay [1]; in assay [3]; in assay [5]; with Sclerotinia sclerotiorum) was ≥ 80% each time. The pest or weed control at 200 ppm in assay [2] is ≥ 50%.
For `N#Cc1cc(C(=O)NCC(F)c2ccc(Cl)cc2Cl)c(Oc2cccc(C3CC3)c2)cn1` (stereo not drawn) [Compound 1.20, 2-cyano-5-(3-cyclopropyl-phenoxy)-N-[2-(2,4-dichlorophenyl) 2-fluoro-ethyl]pyridine-4-carboxamide], the pest or weed control at 200 ppm is ≥ 80% in the assay on Alternaria solani and ≥ 50% in assay [2]. Besides, the inhibition of growth at 20 ppm (in assay [1]; in assay [3]; in the assay on Sclerotinia sclerotiorum) was ≥ 80% each time.
Turning to `O=C(NCC(F)c1ccc(Cl)cc1Cl)c1cc(Cl)ncc1Oc1cccc(C2CC2)c1F` (stereo not drawn) [Compound 1.70, 2-chloro-5-(3-cyclopropyl-2-fluoro-phenoxy)-N-[2-(2,4-dichlorophenyl)-2-fluoro-ethyl]pyridine-4-carboxamide], the inhibition of growth at 20 ppm (in assay [1]; in assay [5]; with Sclerotinia sclerotiorum) was ≥ 80% throughout. Besides, the pest or weed control at 200 ppm in assay [2] was ≥ 50%.
Take `CCc1cncc(Oc2cccc(C3CC3)c2)c1C(=O)NCC(F)c1ccc(Cl)cc1Cl` (stereo not drawn) [Compound 1.79, 3-(3-cyclopropyl-phenoxy)-N-[2-(2,4-dichlorophenyl)-2-fluoro-ethyl]-5-ethyl-pyridine-4-carboxamide]: the inhibition of growth at 20 ppm (in assay [1]; in assay [3]; in assay [5]; in the assay with Sclerotinia sclerotiorum) was ≥ 80% each time. Moreover, in assay [2], the pest or weed control at 200 ppm was ≥ 50%.
As to `CCc1cc(C(=O)NCC(F)c2ccc(Cl)cc2Cl)c(Oc2cccc(C3CC3)c2)cn1` (stereo not drawn) [Compound 1.81, 5-(3-cyclopropyl-phenoxy)-N-[2-(2,4-dichlorophenyl)-2-fluoro-ethyl]-2-ethyl-pyridine-4-carboxamide], the inhibition of growth at 20 ppm (in assay [1]; in assay [3]; in assay [5]; in the assay on Sclerotinia sclerotiorum) was ≥ 80% each time. Moreover, the pest or weed control at 200 ppm in assay [2] is ≥ 50%.
Take `C=C(C)COc1cncc(Oc2cccc(C3CC3)c2)c1C(=O)NCC(F)c1ccc(Cl)cc1Cl` (stereo not drawn) [Compound 1.85, 3-(3-cyclopropyl-phenoxy)-N-[2-(2,4-dichlorophenyl)-2-fluoro-ethyl]-5-(2-methylallyloxy) pyridine-4-carboxamide]: the inhibition of growth at 20 ppm (in assay [1]; in assay [3]; in assay [5]; with Sclerotinia sclerotiorum) was ≥ 80% in each case. Moreover, the pest or weed control at 200 ppm in assay [2] is ≥ 50%; in the assay on Pyrenophora teres, ≥ 80%.
For `C#Cc1cc(C(=O)NCC(F)c2ccc(Cl)cc2Cl)c(Oc2cccc(C3CC3)c2)cn1` (stereo not drawn) [Compound 1.86, 5-(3-cyclopropyl-phenoxy)-N-[2-(2,4-dichlorophenyl)-2-fluoro-ethyl]-2-ethynyl-pyridine-4-carboxamide], the inhibition of growth at 20 ppm in assay [1], in assay [3] and in assay [5] was ≥ 80% in each case. Further, the pest or weed control at 200 ppm in assay [4] was ≥ 80%.
With `C#CC(C)(C)Oc1cncc(Oc2cccc(C3CC3)c2)c1C(=O)NCCc1ccc(Cl)cc1Cl` [Compound 1.88, 3-(3-cyclopropyl-phenoxy)-N-[2-(2,4-dichlorophenyl)ethyl]-5-(1,1-dimethylprop-2-ynoxy)pyridine-4-carboxamide], the inhibition of growth at 20 ppm (in assay [1]; in assay [3]; in assay [5]; in the assay with Sclerotinia sclerotiorum) was ≥ 80% in each case. For the same molecule, the figures for the pest or weed control at 200 ppm (in assay [2]; with Pyrenophora teres) were ≥ 50% and ≥ 80%, respectively.
As for `C#CC(C)(C)Oc1cncc(Oc2cccc(C3CC3)c2)c1C(=O)NCC(F)c1ccc(Cl)cc1Cl` (stereo not drawn) [Compound 1.92, 3-(3-cyclopropyl-phenoxy)-N-[2-(2,4-dichlorophenyl)-2-fluoro-ethyl]-5-(1,1-dimethylprop-2-ynoxy)pyridine-4-carboxamide], the inhibition of growth at 20 ppm (in assay [1]; in assay [3]; in assay [5]; in the assay on Sclerotinia sclerotiorum) was ≥ 80% each time. In assay [4], the pest or weed control at 200 ppm is ≥ 80%.
For `Cc1cncc(Oc2cccc(C3CC3)c2)c1C(=O)NC[C@H](F)c1ccc(Cl)cc1Cl` [Compound 1.94, 3-(3-cyclopropyl-phenoxy)-N-[(2R)-2-(2,4-dichlorophenyl)-2-fluoro-ethyl]-5-methyl-pyridine-4-carboxamide], the pest or weed control at 200 ppm (in the assay with Alternaria solani; in assay [4]; in the assay with Pyrenophora teres) was ≥ 80% throughout. Moreover, the inhibition of growth at 20 ppm (in assay [1]; in assay [3]; in assay [5]; in the assay on Sclerotinia sclerotiorum) was ≥ 80% each time.
For `O=C(NC[C@H](F)c1ccc(Cl)cc1Cl)c1c(Br)cncc1Oc1cccc(C2CC2)c1` [Compound 1.95, 3-bromo-5-(3-cyclopropyl-phenoxy)-N-[(2R)-2-(2,4-dichlorophenyl)-2-fluoro-ethyl]pyridine-4-carboxamide], the pest or weed control at 200 ppm (with Alternaria solani; in assay [4]) was ≥ 80% each time. Also, the inhibition of growth at 20 ppm (in assay [1]; in assay [3]; in assay [5]; with Sclerotinia sclerotiorum) was ≥ 80% throughout.
Regarding `COc1cc(C(=O)NCC(F)c2ccc(Cl)cc2Cl)c(Oc2cccc(C3CC3)c2)cn1` (stereo not drawn) [Compound 1.98, 5-(3-cyclopropyl-phenoxy)-N-[2-(2,4-dichlorophenyl)-2-fluoro-ethyl]-2-methoxy-pyridine-4-carboxamide], in the assay with Alternaria solani, the pest or weed control at 200 ppm is ≥ 80%. The inhibition of growth at 20 ppm in assay [1] and in assay [3] was ≥ 80% each time.
